These results are taken from patent publication US5663207A, “Gem-dichlorocyclopropanes as antitumor agents” (priority 1995, dated 1997).

Entries after “also recorded” stand apart in the source; their conditions may differ.

A short description of series [1]: Stability observed during isolation and storage. The class given is physicochemical. The following applies: on concentration, drying or storage. The protocol: The structures of all compounds were supported by their proton NMR spectra, which were measured on either a Varian EM-360A or XL-300 spectrometer. The spectra are reported in parts per million in CDCl3 unless otherwise noted, with tetramethysilane as the internal standard. Infrared spectra were obtained from KBr pellets on a Beckman Acculab 1 spectrometer and were consistent with the assigned structures. Silica gel (for example, obtained commercially from J. T. Baker) of approximately 40 μm diameter was used for flash chromatography (STILL, W. C., KAHN, M. AND MITRA, A. (1978), "Rapid chromatographic technique for preparative separations with moderate resolutions", Journal of Organic Chemistry, 43, 2923), which was performed at 5-10 psi. Petroleum ether was of bp 30°-60° C. When necessary, solvents or reagents were dried by appropriate methods. Evaporations were carried out in vacuo on a rotary evaporator or under a stream of dry N2. Melting points were taken on a Thomas-Hoover capillary melting point apparatus and are uncorrected. Reaction progress and product purity were monitored by analytical TLC on strips of Eastman Kodak plastic-backed SiO2 60 F254 or Al2 O3 F254. Developed strips were viewed under light of 254 and 365 nm wavelengths. Elemental analyses were done by Midwest Microlab Ltd., Indianapolis, IN. Acceptable elemental results are denoted in Table I by the formula, followed by the elements analyzed. Melting points and yields of all compounds were based on pure samples unless otherwise noted, are listed in Table I. Para-Bromoanisole, p-methoxydeoxybenzoin, anisole, p-methoxybenzaldehyde, and 2,3-bis-(p-methoxyphenyl)-acrylic acid and trans-p-methoxystilbene (the olefin), were purchased from Aldrich & Co. The cyclopropanes 1,1-dichloro-cis-2-(p-hydroxyphenyl)-3-phenylcyclopropane (9), and its trans isomer 1,1-dichloro-trans-2-(p-Hydroxyphenyl)-3phenylcyclopropane (17) were prepared from Compounds 8 & 16, respectively. […] Tamoxifen was obtained from Stuart Pharmaceuticals, Division of ICI Americas, Inc., Wilmington, Del. 19897. MER 25 was obtained from the Merrell Dow Research Institute, Division of Merrell Dow Pharmaceuticals, Inc., Cincinnati, Ohio. Protein Assay Reagent, Pierce Chemical Co., Rockford, Ill. 61105. Diethylstilbestrol, β-estradiol, EDTA, DL-dithiothreitol, Sodium molybdate, and Tris (hydroxymethyl) aminomethane hydrochloride were purchased from Sigma Chemical Co., St. Louis, Mo. 63178.
Essentially, the intermediate olefin acids (Compounds 6 & 12) were obtained from a mixed Perkin and Knoevenagel-type condensation involving the reaction of p-methoxyaldehyde (Compound 4) with phenylacetic acid (Compound 5), or p-methoxyphenylacetic acid (Compound 11) in triethylamine and acetic anhydride. To prepare cis-p-methoxystilbene (Compound 7) or bis-(p-methoxy)-cis-stilbene (Compound 13). Decarboxylation of 6 & 12 with quinoline (prevents isomerizations; KLEIN, J. AND MEYER, A. Y. (1964), "The decarboxylation of α-cyano-and α-carboxycinnamic acids", Journal of Organic Chemistry, 29, 1038), and copper chromite at elevated temperature provided 7 & 13. High temperature during distillation caused 8% isomerization to the trans-isomer (15), which was isolated by column chromatography. Dichlorocarbene generation used the catalytic phase transfer method (21, 37) (used extensively in our laboratory) of 50% aqueous solution of NaOH, CHCl3 and benzyltriethylammonium chloride (TEBA) as the anion transfer agent. […]

For series [2], the target named is T1, estrogen receptor (Rattus norvegicus, UniProt P06211).
T1 construct: ovariectomized rat uterine cytosolic estrogen receptor preparation; from tissue; host or cells: uterine cytosol of ovariectomized Sprague-Dawley rats (immature rats from Sasco are named as uterus source, mature ovariectomized rats)
T1 sequence (P06211 1-600): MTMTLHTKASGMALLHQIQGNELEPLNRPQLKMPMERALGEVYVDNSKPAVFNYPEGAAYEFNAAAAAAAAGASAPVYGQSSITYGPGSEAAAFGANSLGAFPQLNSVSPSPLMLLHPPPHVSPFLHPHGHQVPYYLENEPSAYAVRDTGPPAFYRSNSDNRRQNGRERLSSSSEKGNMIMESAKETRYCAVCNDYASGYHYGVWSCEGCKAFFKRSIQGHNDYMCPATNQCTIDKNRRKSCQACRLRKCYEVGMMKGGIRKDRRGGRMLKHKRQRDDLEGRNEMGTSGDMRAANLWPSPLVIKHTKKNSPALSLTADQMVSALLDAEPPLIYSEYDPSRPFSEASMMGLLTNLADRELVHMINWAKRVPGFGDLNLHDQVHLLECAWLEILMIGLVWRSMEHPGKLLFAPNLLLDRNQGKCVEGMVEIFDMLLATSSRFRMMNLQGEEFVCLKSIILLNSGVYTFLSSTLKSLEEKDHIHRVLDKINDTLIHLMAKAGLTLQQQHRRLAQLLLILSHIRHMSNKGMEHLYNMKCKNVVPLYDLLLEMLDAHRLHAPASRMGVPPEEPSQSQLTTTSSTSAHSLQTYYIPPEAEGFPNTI
The series is described as follows: Receptor binding assay: displacement of [3H]-estradiol from rat uterine cytosol. Also noted: species or system rat (Sprague-Dawley). The following applies: for RBA (relative binding affinity): relative to estradiol = 100%. The source says: (§1) The biological evaluation of the test compounds consisted of the in vitro rat cytosolic estradiol receptor binding assay, the in vivo immature mouse uterotrophic (estrogenic) and antiuterotrophic (antiestrogenic) assays, and the in vitro suppression of the proliferation of the ER positive MCF-7 human breast cancer cell line. Estradiol (pure agonist), TAM (agonist in mice and antagonist in MCF-7), MER 25 (pure antagonist) and Analog II (antagonist in mice) were used in the assay as standards.
(§2) Vital-free immature female Swiss-Webster mice were obtained at 17-19 days of age from Sasco weighing 8-10 g, and were used in the uterotrophic and antiuterotrophic assays. Immature female Sprague-Dawley rats, obtained at 17-19 days of age from Sasco, weighing 28-33 g, were used as sources of uteri for the estradiol receptor binding assay. Animals were housed in wire topped polycarbonate cages at six animals per cage, with the environment controlled at 25° C. and a 12 h light/dark cycle. The animals received a diet of Wayne Lab Blox rodent chow and tap water ad libitum.
The RBAs of the test compounds were determined by the displacement of [^3 H]-estradiol in vitro, as described previously (DAY, B. W., […], R. A., JAIN, P., PENTO, J. T., MOUSISSIAN, G. K. AND MEYER, K. L. (1991), "Synthesis and biological evaluation of a series of 1,1-dichloro-2,2,3-triarylcyclopropanes as pure antiestrogens", Journal of Medicinal Chemistry, 34, 842; KORENMAN, S. G. (1969), "Comparative binding affinity of estrogens and its relation to estrogenic potency", Steroid, 13, 163). Mature female Sprague-Dawley rats were ovariectomized at least two weeks prior to the receptor binding experiment. Each test compound was assayed at three concentrations in duplicate over a range of 10^-3 -10^-5 M and 10^-6 -10^-8 M for the estradiol standard. The non-specific binding was determined by a parallel incubation of each compound with the addition of diethylstilbestrol to give a final concentration of 2×10^-5 M DES which was sufficient to saturate all the estrogen receptors present in the cytosolic fraction. Specific displacement for each compound was determined by subtraction of nonspecific displacement from total displacement. The [^3 H]-estradioldisplacement curve for each test compound was determined by linear repression analysis and plotted graphically. The relative binding affinity for each compound was calculated (BLISS, C.I. (1967), "The statistics in biology", McGraw Hill, Inc: New York).
^a Determined by competitive radiometric binding assay with rat
uterine cytosol as a source of receptor, [^3 H]estradiol as tracer,
and dextrancoated charcoal as absorbant for free ligand.
^c Binding affinities are expressed relative to that of estradiol =
100% (RBA = relative binding affinity) and are the average of duplicate
determinations minus nonspecific binding.
The relative binding affinities (RBAs), as determined by the competitive radiometric binding assay and measured by [^3 H]-estradiol displacement from the ovariectomized rat uterine cytosolic estrogen receptor preparation, after subtracting non-specific receptor binding, were calculated for all of the synthesized target compounds, TAM, MER 25, Analog II, and estradiol. The displacement curves were plotted as percent receptor-bound [^3 H]-estrodiol versus concentration of test compounds (not shown) and the receptor binding affinity of each compound is presented in Table II.

Series [3] relates to MCF-7 human breast cancer cells. As to the kind of experiment: In vitro MCF-7 human breast cancer cell growth inhibition assay. The class given is cell-based. The following applies: for effect on MCF-7 cell growth (in words): 10^-6 M; for inhibition at 1 µM: Homo sapiens, MCF7, read-out: MCF-7 Inhibition.
Source text: as §1
MCF-7 (estrogen-receptor positive) human breast cancer cells (obtained from the Michigan Cancer Foundation, Detroit, Mich.) were grown at 37° C. in 75 cm^2 tissue culture (T-75) flasks, as monolayer cultures in RPMI 1640 phenol red-free media supplemented with 2 mM L-glutamine, gentamicin (50 μg/mL), penicillin (100 units/mL), streptomycin (100 μg/mL ) and calf serum (5%). Cultures were grown in an incubator 37° C. in a humid 5% CO2 atmosphere, and fed on alternate days. Expotential growth was maintained by subculturing at eight day intervals when the cells per T-75 flask reached 10 to 12×10^6 cells. Cells were trypsinized, washed and plated in multiwell plates at a density of 5×10^4 cells/well in 3 mL of RPMI 1640 media. The cells were allowed to attach and were in logarithmic growth when the test compounds were added. The test compounds (10^-6 M) in the presence or absence of a 10-fold lower dose of estradiol were dissolved in a polyethylene glycol 400: ethanol (55:45) mixture and added in the culture media in duplicate. Control samples received vehicle alone at the same concentration used in the treatment groups. The final concentration of the vehicle mixture was 0.1% of the incubation media. Cell growth was measured on alternate days using the hemocytometric trypan blue exclusion method. Percent inhibition of MCF-7 cells was calculated as the ratio of the control mean cell count per well minus the treatment group mean cell count per well to the control mean cell count per well, multiplied by 100.
^b % MCF7 inhibition was calculated as follows: […]
Thirteen compounds, Analog II, TAM, and MER 25 were tested for their antiproliferative activity in the MCF-7 human breast cancer cell line (Table II). Compounds were tested at a concentration of 10^-6 M in the presence or absence of 10^-7 M estradiol to assess their ability to alter the growth of the calls (Table II). The 10^-6 M concentration was selected since it was reported that the inhibition of the MCF-7 cells by antiestrogens and TAM occurred either at that concentration or less, and were both selective and estrogen receptor specific. Concentrations of antiestrogens greater than 5×10^-6 M were reported to have nonspecific cytotoxic effects (BRIAND, P. AND […], A. E. (1984), "Effect of estrogen and antiestrogen on the human breast cancer cell line MCF-7 adapted to growth at low serum concentration", Cancer Research, 44, 1114).

The test system of series [4] is Immature Swiss-Webster female mice (uterine weight). As to the kind of experiment: Uterotrophic assay for estrogenic activity in immature mice. The following applies: for uterine weight response (estrogenic activity, in words): doses of 5, 25 and 100 μg (total dose). The class given is in vivo, mouse (Swiss-Webster).
Source text: The biological evaluation of the test compounds consisted of the in vitro rat cytosolic estradiol receptor binding assay, the in vivo immature mouse uterotrophic (estrogenic) and antiuterotrophic (antiestrogenic) assays, and the in vitro suppression of the proliferation of the ER positive MCF-7 human breast cancer cell line.
as §2
Immature Swiss-Webster female mice (8-15 g) at 17-19 days of age were used. Estradiol was used in the dosage range of […] (total dose) as the assay standard. Each cyclopropyl analogue was examined at doses of 5, 25, and 100 μg (total dose). […] Estrogenic activity was measured as an increase in uterine weight produced by each test compound.

In series [5] the test system is MCF-7 human breast cancer cells. The conditions noted are these: cited from earlier work.

Consider `Oc1ccc([C@H]2[C@@H](c3ccccc3)C2(Cl)Cl)cc1` (relative stereo) [Compound 9, 1,1-dichloro-cis-2-(p-hydroxyphenyl)-3-phenylcyclopropane], for which the “stability (in words)” value in series [1] is “instability to air and light; also recorded: underwent gradual color changes when concentrated”.
Same read-out and setting: then `Oc1ccc([C@H]2[C@H](c3ccccc3)C2(Cl)Cl)cc1` (relative stereo) [Compound 17, 1,1-dichloro-trans-2-(p-hydroxyphenyl)-3-phenylcyclopropane], with “underwent gradual color changes when concentrated”.
As for `COc1ccc(C2(c3ccc(OC)cc3)C(c3ccccc3)C2(Cl)Cl)cc1` (stereo not drawn) [Compound 35, 1,1-Dichloro-2,2-bis-(p-methoxyphenyl)-3-phenylcyclopropane], the “[3H]-estradiol displacement curve (in words)” value in series [2] (rat uterine cytosolic estrogen receptor) is “dose-dependent displacement curves with shallower slopes than their acetoxy and phenolic analogues”. Further, the “RBA (relative binding affinity)” value in series [2] (given as dash with footnote e) was “--^e (Less than 0.01%.)”. Also, in series [3], the “effect on MCF-7 cell growth (in words)” value is reported as “did not alter cell growth” and the inhibition (in general, the change of the read-out against control, counted positive when it falls) at 1 µM is less than 10%. For the same compound, in series [4], the “uterine weight response (estrogenic activity, in words)” value was “slight increase in uterine weight at doses of 25 and 100 μg”. For the same compound, the “uterotrophic response on retest (in words)” value in series [4] (retested at 25, 100, and 250 μg) is “no significant uterotrophic responses”.
Regarding `Oc1ccc(C2(c3ccc(O)cc3)C(c3ccccc3)C2(Cl)Cl)cc1` (stereo not drawn) [Compound 36], the “stability (in words)” value in series [1] is “Drying of phenol 36 at a high temperature resulted in the formation of an indene”.
As for `CC(=O)Oc1ccc(C2(c3ccc(OC(C)=O)cc3)C(c3ccccc3)C2(Cl)Cl)cc1` (stereo not drawn) [Compound 37, 1,1-Dichloro-2,2-bis-(p-acetoxyphenyl)-3-phenylcyclopropane], the “RBA (relative binding affinity)” value in series [2] (average of duplicate determinations minus nonspecific binding) was found to be 0.08%. Further, in series [3], the “effect on MCF-7 cell growth (in words)” value was “did not alter cell growth” and the inhibition at 1 µM was less than 10%. Moreover, in series [4], the “uterine weight response (estrogenic activity, in words)” value is “well below the control group”.
On to `CC/C(=C(\c1ccccc1)c1ccc(OCCN(C)C)cc1)c1ccccc1` [Tamoxifen], for which the “MCF-7 Inhibition” value in series [5] (10^-6 M, Day et al., J. Med. Chem. 34, 842-851 (1991)) is on record as 25.6%. Also, the “concentration at which inhibition of MCF-7 cells occurred” value in series [5] (reported as selective and estrogen receptor specific) is ≤ 10^-6 M.
